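Compound exposure: 48 hours, 5 concentrations, 96-well plates. GI50 = concentration required for 50% inhibition of growth. TGI is the concentration that stops growth completely.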

The subject of this test is MDA-MB-468 breast. Nature of the test: growth of human tumour cells (NCI), 48 h.
`Cc1nc(N=C(N)N)nc2ccc3ccccc3c12`: the GI50 was 430 nM and the TGI stood at 2060 nM.

For the molecule `CCN(CC)c1ccc(/C=C/C2=[N+](C)c3ccccc3C2(C)C)cc1`, the GI50 is 175 nM and the TGI worked out at 5880 nM.

Take `COc1cccc(N2CCN(C3=C(Cl)C(=O)c4ncccc4C3=O)CC2)c1`: the GI50 was 1750 nM and the TGI came to 3430 nM.

With `C=C1CCC2C3(C)COC(c4cccc(Cl)c4)OC3CCC2(C)C1/C=C/C1=CCOC1=O` (stereo not drawn), the GI50 was 1420 nM and the TGI was 7820 nM.

Consider `CCOC(=O)/C(=C/c1c(-c2ccccc2)[nH]c2ccccc12)C(=O)c1ccc(Cl)cc1`, for which the GI50 is 4360 nM and the TGI was above 100000 nM.

Consider `O=C1/C(=C\c2ccccc2)CN(C(=O)c2ccccc2F)C/C1=C\c1ccccc1`, for which the GI50 was 1810 nM and the TGI amounted to 3890 nM.

`c1ccc(COc2ccc(Nc3ncnc4ccc(-c5ccco5)cc34)cc2)cc1`: the GI50 is 480 nM and the TGI was 5320 nM.

For `C=C(CNCCc1ccc(O)cc1)[C@@H]1CC[C@]2(CO)CC[C@]3(C)[C@H](CC[C@@H]4[C@@]5(C)CCC(NCCO)C(C)(C)[C@@H]5CC[C@]43C)[C@@H]12` (stereo partly drawn), the GI50 is 1260 nM and the TGI amounted to 2920 nM.

For `C/C(=N\NC(=S)Nc1ccccc1)c1ccccn1`, the GI50 is below 13.2 nM and the TGI was determined as 115 nM.

Regarding `COc1cc2c(c(Br)c1N)-c1cc(Br)c(N)cc1C2=O`, the GI50 is 17.2 nM and the TGI was 42.1 nM.

Regarding `O=C(Nc1ccc(-n2cc(-c3ccncc3)c(-c3ccc(O)c(Cl)c3)n2)cc1)c1ccc(Cl)c(Cl)c1`, the GI50 is 4250 nM and the TGI was above 32500 nM.

As to `Nc1nccc(C#Cc2cncnc2Nc2ccc(OCc3cccc(F)c3)c(Cl)c2)n1`, the GI50 was 1510 nM and the TGI came out at 4370 nM.

Turning to `C[C@@H](Oc1cc(-n2cnc3ccc(OCC4CCN(C)CC4)cc32)sc1C(N)=O)c1ccccc1C(F)(F)F`, the GI50 is 44.2 nM and the TGI worked out at 192 nM.

In the case of `c1ccc(CNc2nc(Nc3ccc(-c4nc5ccccc5[nH]4)cc3)c3cn[nH]c3n2)cc1`, the GI50 was 2050 nM and the TGI came to 4810 nM.

For the molecule `O=C(/C=C/c1cccnc1)/C=C/c1cccnc1`, the GI50 is 762 nM and the TGI was 2220 nM.

With `CC1(C)CCC(CN2CCN(c3ccc(C(=O)NS(=O)(=O)c4ccc(NCC5CCOCC5)c([N+](=O)[O-])c4)c(Oc4cnc5[nH]ccc5c4)c3)CC2)=C(c2ccc(Cl)cc2)C1`, the GI50 is 2150 nM and the TGI amounted to 7160 nM.

For `O=[N+]([O-])c1ccc([I+]c2ccccc2)cc1`, the GI50 was 1250 nM and the TGI is 4130 nM.

As to `Cn1cc(-c2csc(-c3cn(C)c4ncccc34)n2)c2ccccc21`, the GI50 was 445 nM and the TGI turned out to be 6600 nM.

Regarding `COc1cc2nc(-c3ccc(Cl)cc3)cc(OCCCN3CCC(O)CC3)c2cc1OC`, the GI50 was 1560 nM and the TGI is 4040 nM.

As for `Oc1ccc(-c2nc(-c3ccc(F)cc3)c(-c3ccncc3)[nH]2)cc1`, the GI50 was 6570 nM and the TGI worked out at 44400 nM.

Turning to `N=C(N)c1ccc(-c2ccc(-c3ccccc3)o2)cc1`, the GI50 was 2120 nM and the TGI was 4100 nM.

With `Cn1cccc1C1CC(=O)N(CCC[Se]C#N)C1=O` (stereo not drawn), the GI50 is 2680 nM and the TGI amounted to 9290 nM.

As to `O=S(=O)(Nc1ccc(-c2nc(-c3cccc(O)c3)c(-c3ccnc(Br)c3)[nH]2)cc1)c1ccccc1`, the GI50 was 1850 nM and the TGI worked out at 5470 nM.

Consider `C#CCSc1nnnn1-c1ccc(Br)c(C)c1`, for which the GI50 is 21200 nM and the TGI turned out to be 79700 nM.

Turning to `CC[C@]12C=CCN3CC[C@]4(C(=C(C(=O)OC)C1)Nc1ccccc14)[C@@H]32`, the GI50 was 3400 nM and the TGI is 15000 nM.

As for `Cc1ccc2c(c1)/C(=N\N=C/c1cn(C(C)C)c3ccccc13)C(=O)N2`, the GI50 was 1840 nM and the TGI is above 100000 nM.

For the molecule `S=c1nc(/C=C/c2ccc(Cl)c(Cl)c2)[nH][nH]1`, the GI50 was above 100000 nM and the TGI was above 100000 nM.

For the molecule `CC1OC(OC2C(OC3CCC4(C)C(CCC5(C)C4CC=C4C6CC(C)(C)CCC6(CO)C(O)CC45C)C3(C)C)OC(C(=O)O)C(OC3OC(COC4OC(CO)C(O)C(O)C4O)C(O)C(O)C3O)C2O)C(O)C(O)C1O` (stereo not drawn), the GI50 is 1850 nM and the TGI is 6810 nM.

`CCN1C(=O)N(CC)C2C1NN=c1s/c(=C\c3ccc([N+](=O)[O-])cc3)c(=O)n12` (stereo not drawn): the GI50 is 409 nM and the TGI was determined as 7140 nM.

Consider `CCCCCCCCCCCCCCCc1ccc(C(=O)C[n+]2ccccc2)cc1`, for which the GI50 was 1550 nM and the TGI is 2890 nM.

In the case of `CCN(CC)CCN1C(=O)c2c(c3c4cc(Br)ccc4[nH]c3c3ccc4ccccc4c23)C1=O`, the GI50 is 1520 nM and the TGI amounted to 3450 nM.

As for `COc1cccc(C2C3=C(COC3=O)N(CCO)c3cc4c(cc32)CCC4)c1` (stereo not drawn), the GI50 was 21.6 nM and the TGI was 177 nM.

Turning to `Cn1cc(-c2nonc2-c2cn(C)c3ccc(Br)cc23)c2ccccc21`, the GI50 is 1560 nM and the TGI was found to be 5170 nM.

In the case of `Cn1cc(-c2ccc3c(c2)ncn3-c2ccc(CC(=O)Nc3cc(C(C)(C)C)on3)cc2)cn1`, the GI50 was 2830 nM and the TGI was found to be 16500 nM.
